According to patent US9603829B2, “HSP90 inhibitors with modified toxicity” (THE REGENTS OF THE UNIVERSITY OF COLORADO, a body corporate, priority 2011, dated 2017):
Like-named read-outs stand apart in the source and are kept apart here. Blank lines part the entries; values can stand above or below the molecule they belong to.

Key:
[1] = system: SHSY-5Y cells; test: MTT growth inhibition assay in SHSY-5Y dopaminergic cells; assay type: cell-based, human; conditions: read-out: SHSY-5Y IC50
Protocol: The 19-substituted benzoquinone ansamycins were also tested in vitro for their ability to reduce the toxicity of BQAs to SH-SY5Y cells a dopaminergic model system of relevance to neurodegenerative disease. Referring to FIG. 9, toxicity of BQAs in SH-SY-5Y cells was measured using trypan blue exclusion (panel A), MTT growth inhibition assay (panel B) and annexin V/PI staining for apoptosis (panel C). Cells in A and C were treated with BQAs (5 μM) for 16 h; cells in B were treated with BQAs for 4 h then allowed to grow in drug-free medium for 72 h. […] The combination of these two properties are likely to be important to the neuroprotective properties of the 19-substituted BQAs.
Growth inhibition assays (MTT) were conducted in human SHSY-5Y cells following a 4 hr treatment with GA or 19Me-GA. Cell were allowed to grow for 72 hrs following drug treatment. The 19-methyl substituted compounds in all series were minimally toxic (see FIG. 12 for data with geldanamycin, MTT assay, results are expressed as the mean±SD, n=3).

[2] = Phase I / phase 1 clinical trials; cited from earlier work
[3] = system: Hsp90 (Raf-1, AKT degradation and Hsp70 induction); test: Biomarkers of Hsp90 inhibition in MDA468/NQ16 cells; assay type: cell-based, human
Protocol: (§1) The ability of 19-substituted BQAs to induce growth inhibition was measured by MTT in isogenic MDA468 (null NQO1) and MDA468/NQ16 (high NQO1) cells. […] Biomarkers of Hsp90 inhibition (Raf-1, AKT degradation and Hsp70 induction) were more pronounced in MDA468/NQ16 cells compared to MDA468 cells following treatment with 19-substituted DMAG analogs.

[4] = system: MDA468/NQ16 breast cancer cells; test: MTT growth inhibition in isogenic MDA468/NQ16 and MDA468 cells; assay type: cell-based, human; conditions: NQO1-rich vs NQO1-null isogenic cells
Protocol: The 19-substituted benzoquinone ansamycins were also tested in vitro for their ability to inhibit growth similar to DMAG in human breast cancer cells (FIG. 10). MDA468/NQ16 breast cancer cells were treated with 19-substituted DMAG analogs for 4 hours, after which drug-containing media was removed and cells were allowed to grow for an additional 72 h. Cell viability was determined using the MTT assay.
as §1

[5] = Glutathione conjugation of benzoquinone ansamycins (HPLC, LC-MS); assay type: in vitro ADME; conditions: 50 μM BA, pH 7.4, room temperature
Protocol: BA-GSH conjugate formation was analyzed by HPLC at 270 nm and further confirmed by LC-MS.

[6] = system: MiaPaCa2 human pancreatic cancer cells; test: MTT growth inhibition in MiaPaCa2 cells; assay type: cell-based; conditions: 4 hr treatment, then 72 h growth, MTT, read-out: IC50 MiaPaCa2
Protocol: (§2) The inventors also examined the ability of 19 BQAs to inhibit the growth of human pancreatic cancer cell lines (FIG. 16). For growth inhibition studies (MTT) cells were treated with drugs for 4 hr and then allowed to grow for 72 h. For biomarker studies MiaPaCa2 cells were treated with DMAG analogs (5 μM) for 24 hr. 19 BQAs inhibit the growth of human pancreatic cancer cell lines (FIG. 16A, 16B) and induce biomarkers of Hsp90 inhibition (FIG. 16C) using isogenic Panc-1 (NQO1 null) and Panc-1/C5 (NQO1 expressing) cell lines.

[7] = system: Hsp90; test: Biomarkers of Hsp90 inhibition in MiaPaCa2 cells; assay type: cell-based, human; conditions: 5 μM, 24 hr (FIG. 16C)
Protocol: as §2

[8] = system: human pancreatic cancer cell lines (Panc-1, Panc-1/C5); test: MTT growth inhibition in human pancreatic cancer cell lines; assay type: cell-based; conditions: human pancreatic cancer cell lines, 4 hr treatment, 72 h growth, MTT (FIG. 16A)
Protocol: as §2

[9] = system: Hsp90 (Raf-1, AKT, CDK4, Her2 degradation, Hsp70 induction); test: Immunoblot biomarkers of Hsp90 inhibition in BT474 cells; assay type: cell-based, human
Protocol: (§3) The inventors extended the studies with 19-substituted DMAG analogs to include the Her2^+ human breast cancer cell line BT474 (FIG. 15). Growth inhibition (FIG. 15, left panel) was measured in BT474 cells following treatment with analogs for 4 hr. Growth inhibition (MTT) was performed 72 h following drug treatments. Biomarkers of Hsp90 inhibition, Raf-1, AKT, CDK4 and Her2 degradation as well as Hsp70 induction were measured by immunoblot analysis in human BT474 breast cancer cells following treatment with 19-substituted DMAG analogs (5 μM) for 24 hr ([…], left panel).

[10] = system: BT474 human breast cancer cells; test: MTT growth inhibition in BT474 cells; assay type: cell-based; conditions: BT474, 4 hr treatment, MTT 72 h later
Protocol: as §3

[11] = system: cdc37/Hsp90 interaction; test: Immunoprecipitation of cdc37 with Hsp90 in BT474 and MDA468/NQ16 cells; assay type: cell-based, human; conditions: 5 μM, 24 hr
Protocol: Similarly, the association of cdc37 with hsp90 was examined in BT474 cells and MDA468/NQ16 cells by immunoprecipitation following treated with analogs (5 μM) for 24 hr. […] This finding is consistent with X ray data using purified Hsp90 showing that the larger 19-phenyl substituent causes greater conformational change in the Hsp90 structure than smaller 19-substituents (not shown). This also correlates with the differential effect of 19-phenyl and 19-methyl DMAG on clients chaperoned by cdc37 to Hsp90 which include Raf1, Akt, cdc2 and cdk4 (FIGS. 8,9,10).

[12] = system: p23/Hsp90 interaction; test: Immunoprecipitation of p23 and Hsp90 in BT474 cells; assay type: cell-based, human; conditions: 5 μM, 24 hr
Protocol: Forward and reverse immunoprecipitation studies were performed in BT474 cells treated with DMAG analogs (5 μM) for 24 hr.

[13] = system: primary mouse hepatocytes; test: Hepatotoxicity in primary mouse hepatocytes (MTT); assay type: cell-based; conditions: 4 hr, confirmed by Trypan Blue and AST leakage
Protocol: The inventors next tested the effect of 19-substitution of BQAs on hepatotoxicity in isolated hepatocyte systems. Isolated primary mouse hepatocytes were grown on coated 96-well plates and exposed to BQAs for 4 h after which their survival was determined using the MTT assay.
As described above, a major obstacle in the development of BQA as drugs has been their ability to induce hepatotoxicity in preclinical studies. […] Toxicity was measured using MTT assay and confirmed using Trypan Blue and AST leakage. The data shown in FIG. 19 were generated using MTT analysis but similar readouts were obtained using either trypan blue exclusion or leakage of AST from hepatocytes.

[14] = 4 hr treatment, then 72 hrs growth, MTT
[15] = Homo sapiens, SH-SY5Y, 4 hr treatment, then 72 hrs growth, MTT

Compound: C=CCNC1=C2C[C@@H](C)C[C@H](OC)[C@H](O)[C@@H](C)/C=C(\C)[C@H](OC(N)=O)[C@@H](OC)/C=C\C=C(/C)C(=O)NC(=CC1=O)C2=O [17AAG, 17-demethoxy-17-(2-propenylamino)-geldanamycin, reference compound]
IC50 [1, 14]: 16.2 µM
hepatotoxicity / toxicity in clinical trials [2]: dose-limiting toxicity
effect on markers of Hsp90 inhibition (Hsp70 induction and Raf-1 degradation) in MDA468/NQ16 compared to MDA468 cells [3]: greater effect on markers of Hsp90 inhibition
decrease in IC50 in MDA468/NQ16 cells compared to MDA468 cells [4]: greater than 66 fold

Compound: CO[C@H]1/C=C\C=C(/C)C(=O)NC2=CC(=O)C(NCCN3CCCC3)=C(C[C@@H](C)C[C@H](OC)[C@H](O)[C@@H](C)/C=C(\C)[C@@H]1OC(N)=O)C2=O [17AEP-GA, 17-demethoxy-17-[[2-(pyrrolidin-1-yl)ethyl]amino]-geldanamycin]
fraction conjugated with glutathione ([5]; 5 mM glutathione, within 10 h): about 90%

Compound: C=CCNC1=C2C[C@@H](C)C[C@H](OC)[C@H](O)[C@@H](C)/C=C(\C)[C@H](OC(N)=O)[C@@H](OC)/C=C\C=C(/C)C(=O)NC(=C(C)C1=O)C2=O [19Me-17AAG, (4E,6Z,8S,9S,10E,12S,13R,14S,16R)-19-(Allylamino)-13-hydroxy-8,14-dimethoxy-4,10,12,16,21-pentamethyl-3,20,22-trioxo-2-azabicyclo[16.3.1]docosa-1(21),4,6,10,18-pentaen-9-yl carbamate]
IC50 ([1]; Homo sapiens, SH-SY5Y): > 20 µM

IC50 ([6]; Homo sapiens, MIA PaCa-2): 35.8 ± 5.5 µM
IC50 [1, 15]: > 20 µM
Compound: CO[C@H]1/C=C\C=C(/C)C(=O)NC2=C(C)C(=O)C(NCCN(C)C)=C(C[C@@H](C)C[C@H](OC)[C@H](O)[C@@H](C)/C=C(\C)[C@@H]1OC(N)=O)C2=O [19Me-DMAG, (4E,6Z,8S,9S,10E,12S,13R,14S,16R)-19-(2-(Dimethylamino)ethylamino)-13-hydroxy-8,14-dimethoxy-4,10,12,16,21-pentamethyl-3,20,22-trioxo-2-azabicyclo[16.3.1]docosa-1(21),4,6,10,18-pentaen-9-yl carbamate]
induction of biomarkers of Hsp90 inhibition [7]: little effect
growth inhibitory activity [8]: little effect
Hsp70 induction ([9]; BT474, 5 μM, 24 hr, immunoblot): robust Hsp70 response
effects on Hsp90 client proteins (Raf-1, AKT, Her2, CDK4) ([9]; BT474, 5 μM, 24 hr, immunoblot): diminished effects on Hsp90 client proteins
effects on clients chaperoned by cdc37 to Hsp90 (Raf1, Akt, cdc2, cdk4) ([9]; cell line not given): had little effect
growth inhibition [10]: no growth inhibition could be observed
Hsp70 induction ([3]; MDA468/NQ16 (high NQO1) cells): equivalent Hsp70 response to 19-phenyl DMAG
Raf-1 and AKT degradation ([3]; MDA468/NQ16 (high NQO1) cells): much less pronounced effect on Hsp90 Raf1 and Akt
interaction of cdc37 with Hsp90 [11]: had little effect
interaction of p23 and Hsp90 [12]: disrupted the interaction of p23 and Hsp90
hepatotoxicity [13]: no toxicity was observed

Compound: COC1=C2C[C@@H](C)C[C@H](OC)[C@H](O)[C@@H](C)/C=C(\C)[C@H](OC(N)=O)[C@@H](OC)/C=C\C=C(/C)C(=O)NC(=C(C)C1=O)C2=O [19Me-GA, (4E,6Z,8S,9S,10E,12S,13R,14S,16R)-13-Hydroxy-8,14,19-trimethoxy-,10,12,16,21-pentamethyl-3,20,22-trioxo-2-azabicyclo[16.3.1]docosa-1(21),4,6,10,18-pentaen-9-yl carbamate]
IC50 ([1]; Homo sapiens, SH-SY5Y): > 10 µM

Compound: C=CCNC1=C2C[C@@H](C)C[C@H](OC)[C@H](O)[C@@H](C)/C=C(\C)[C@H](OC(N)=O)[C@@H](OC)/C=C\C=C(/C)C(=O)NC(=C(c3ccccc3)C1=O)C2=O [19Ph-17AAG, (4E,6Z,8S,9S,10E,12S,13R,14S,16R)-19-(Allylamino)-13-hydroxy-8,14-dimethoxy-4,10,12,16-tetramethyl-3,20,22-trioxo-21-phenyl-2-azabicyclo[16.3.1]docosa-1(21),4,6,10,18-pentaen-9-yl carbamate]
IC50 ([1]; Homo sapiens, SH-SY5Y): > 20 µM

IC50 [6]: 0.13 ± 0.01 µM
IC50 [1, 14]: 9.4 µM
17-DMAG-SG conjugate formed ([5]; 5 mM reduced glutathione, within 4 h): approximately 47 μM
Compound: CO[C@H]1/C=C\C=C(/C)C(=O)NC2=CC(=O)C(NCCN(C)C)=C(C[C@@H](C)C[C@H](OC)[C@H](O)[C@@H](C)/C=C(\C)[C@@H]1OC(N)=O)C2=O [DMAG, 17-demethoxy-17-[[2-(dimethylamino)ethyl]amino]-geldanamycin, reference compound]
hepatotoxicity / toxicity in clinical trials [2]: significant toxicities
hepatotoxicity [13]: significant hepatotoxicity

IC50 [1, 15]: 0.133 µM
Compound: COC1=C2C[C@@H](C)C[C@H](OC)[C@H](O)[C@@H](C)/C=C(\C)[C@H](OC(N)=O)[C@@H](OC)/C=C\C=C(/C)C(=O)NC(=CC1=O)C2=O [GA, geldanamycin, reference compound]
hepatotoxicity / toxicity in clinical trials [2]: unacceptable hepatotoxicity
